Assay results from patent US11389385B2, “Resorcinol derivatives for their cosmetic use” (L'OREAL, priority 2017, dated 2022).
Where two headings read alike, the source gives them in different places.

Experiments:
normal human melanocytes = assay: Depigmenting activity: reduction of melanin production in normal human melanocytes in vitro; assay type: cell-based; settings: Melanocyte, 72 h, 72 hours incubation, maximum concentration tested 200 μM, read-out: IC50 (concentration at which a 50% decrease in melanin synthesis is achieved)
Experimental: The measurement of the depigmenting activity (reduction of melanin production) of compounds of formula (I) was performed by assaying normal human melanocytes in vitro as follows.
First, normal human melanocytes are cultured and distributed in a multiwell plate. After 24 hours, the culture medium was replaced with a medium containing the compounds of formula (I) to be evaluated. The cells were incubated 72 hours before measurement of the final optical density, which measures the amount of melanin produced by the melanocytes. A dose effect was performed using a wide concentration range of the compounds evaluated. Thus, by making the concentrations and the melanin measurements correspond, it was possible to determine an IC50 in μM: concentration at which a 50% decrease in melanin synthesis is achieved.
Various test campaigns were conducted and the test results are collated in the tables below.

[1] = tested on: coculture of keratinocytes and melanocytes; assay: Coculture experiment: melanogenesis-modulating effect and cytotoxicity; assay type: cell-based; settings: for IC50: melanin optical density, read-out: IC50 (concentration for which 50% of the melanin synthesis is inhibited)
Experimental: The melanogenesis-modulating effect of compound D was measured according to the method described in patent FR-A-2734825, and also in the article by R. Schmidt, P. Krien and M. Régnier, Anal. Biochem., 235(2), 113-18, 1996. This test is performed on a coculture of keratinocytes and melanocytes.
For the test compounds, the following were determined: • the cytotoxicity, • the inhibitory activity on melanin synthesis, by estimating the melanin optical density.
The IC50 values (concentration for which 50% of the melanin synthesis is inhibited) were determined.
The test was also performed with the compound 5-[(E)-2-(4-hydroxyphenyl)ethenyl]benzene-1,3-diol described in the prior art patent application JP01038009,

[2] = values marked *: different campaigns each time
[3] = coculture of keratinocytes and melanocytes

Compound | IC50 (normal human melanocytes; [2]) | IC50 (normal human melanocytes; melanin by optical density) | cytotoxicity [1, 3] | IC50 [1, 3] | cytotoxicity [1]
CC(Cc1ncc[nH]1)c1ccc(O)cc1O (stereo not shown) [Compound A, 4-[1-(1H-imidazol-2-yl)propan-2-yl]benzene-1,3-diol] | 3.7 µM |  |  |  | 
CC(Cc1nccs1)c1ccc(O)cc1O (stereo not shown) [Compound B, 4-[1-(1,3-thiazol-2-yl)propan-2-yl]benzene-1,3-diol] | 1.07 µM | 5.9 µM |  |  | 
Oc1ccc(/C=C/c2cc(O)cc(O)c2)cc1 [Compound of the prior art, 5-[(E)-2-(4-hydroxyphenyl)ethenyl]benzene-1,3-diol, reference compound] |  | 8.18 µM | Non-cytotoxic | 2.77 µM | 
CC(Cc1nc2ccccc2[nH]1)c1ccc(O)cc1O (stereo not shown) [Compound D, 4-[1-(1H-benzimidazol-2-yl)propan-2-yl]benzene-1,3-diol] | 6.7 µM | 3.7 µM |  | 1.38 µM | non-cytotoxic
